Measured values reported in paper PMC9343874, “Comparative Pharmacokinetics of Cinobufacini Capsule and Injection by UPLC-MS/MS” (Frontiers in Pharmacology, 2022).
Where two headings read alike, the source gives them in different places.

How the values were obtained:
[1] = Pharmacokinetic study in rats after intravenous administration of cinobufacini injection (UPLC-MS/MS of plasma); type: in vivo, rat
Procedure: (§1) Male Sprague–Dawley rats (weighing 200–220 g) of SPF grade were offered by Sippr/BK laboratory Animal, Corp., Ltd. (Shanghai, China) and fed in the Laboratory Animal Center of the Shanghai University of Traditional Chinese Medicine. All the rats were kept under environmentally controlled conditions with constant temperature (22–24°C) and humidity (60–65%). The animal experiment program in the present research was approved by the Animal Committee of the Shanghai University of Traditional Chinese Medicine (PZSHUTCM210618012).
(§2) An Agilent 1290 liquid chromatographic system includes a G4220A quaternary pump, a G1326C column incubator, a G4226A automatic sampler, and a G1330B degasser. The column temperature was set to 35°C. A measure of 5 µL of samples were separated in an Agilent SB-C18 column (2.1 mm ×50 mm, 1.8 μm) and eluted at 0.3 ml/min, followed by gradient elution with water (0.1% V/V formic acid) (A) and acetonitrile (B) (0–1 min, 20%–20% B; 1–3.5 min, 20%–80% B; 4–4.1 min, 80%-20% B; 4.1–6 min, 20% B). The total run time was 6 minutes.
(§3) An Agilent 1290 Infinity series UPLC system was combined with an Agilent 6460 series triple quadrupole mass spectrometer (Agilent Technologies, Santa Clara, CA, United States) to quantify all 13 analytes in an ESI-positive ionization mode. Quantitative analysis was performed in an MRM mode. The mass spectrum conditions were as follows: capillary voltage, 4000V; drying gas (N2), gas flow rate: 10 L/min; sprayer, 30 psi; gas temperature 350°C; The delta EMV (+) 200 V; collision gas (N2); dwell time, 25 ms. Agilent’s MassHunter Workstation software was used for data collection, peak area calculation, and quantitative analysis.
(§4) A measure of 50 µL of the plasma sample was mixed with 10 µL of the internal standard solution (345 ng/ml) in a 1.5-ml centrifuge tube and vortexed for 5 min. The samples were extracted by 500 µL of ethyl acetate for 5 min and centrifuged at 4°C for 10 min (18000 rpm). All the supernatants were collected into another 1.5-ml centrifuge tube, dried under a gentle stream of nitrogen at 37°C, and then added with 50 µL of 80% methanol for resolution. The resolution samples were centrifuged at 4°C for 10 min (18000 rpm), and 5 µL supernatant was extracted and injected for analysis.
(§5) Twenty-four male Sprague–Dawley rats (weigh 200–220 g) were divided into four groups with six rats in each group randomly, including three capsule groups at three different doses and one injection group. In the instructions for cinobufacini capsule and injection, the clinical dosage for adults is 2 g per 70 kg orally and 20 ml per 70 kg intravenously, converting to rat doses of 180 mg/kg and 1.8 ml/kg, respectively.
(§6) In the pre-experiments, we compared cinobufacini capsule of 180 mg/kg (one-time clinical dose) and 900 mg/kg (five times of clinical dose) and Cinobufacini injection of 1.8 ml/kg, but concentrations of some compounds in plasma were too low and difficult to be quantified. […] The experimental rats were led to fast the night and were free to get access to water for 12 h before the pharmacokinetic study. After administration, blood samples (approximately 150 μL) of rats were collected via retro-orbital sinus into heparinized centrifuge tubes at 0.05, 0.083, 0.25, 0.5, 0.75, 1, 2, 4, 6, 8, and 10 h. After centrifugation at 5,000 rpm for 10 min, the plasma was transferred to 1.5-ml polypropylene tubes and stored at −80°C until UPLC-MS/MS analysis.
(§7) GraphPad Prism software (version 8.0.2) was used to draw the mean plasma concentration–time curves of all analytes. The pharmacokinetic parameters were calculated by DAS 3.2.8 software. Meanwhile, the pharmacokinetic data on rats were presented as mean ± standard deviation (SD). Differences of pharmacokinetic parameters between groups were analyzed by the t-test using SPSS software (version 26.0). Differences were considered significant statistically when the p-values were <0.05 and very significant statistically when the p-values were <0.01.

[2] = Stability of analytes in rat plasma QC samples under storage conditions; type: physicochemical; details: n = 6; for Stability during 24 h at 4°C, RE: post-treatment storage in autosampler; for −80°C for 30 days, RE / Three freeze–thaw cycles, RE: rat plasma; for −80°C for 30 days, RE: long-term; for Three freeze–thaw cycles, RE: −80°C to room temperature
Procedure: The stability of QC samples in six replicates at three concentrations (low, medium, and high levels) was analyzed under different storage conditions: the post-treatment stability was analyzed after storage in an autosampler (4°C) for 24 h. Freeze–thaw stability was investigated after three freeze–thaw cycles (−80°C to room temperature as one cycle). Long-term stability was assessed by analyzing QC samples kept at −80°C for 30 days. The concentrations of the analytes in the plasma samples and the QC samples were calculated by the calibration standard curve prepared each day. The stabilities of analytes were acceptable when the accuracy (RE, %) and precision (RSD, %) of all QC samples in all storage conditions were within ±15% compared to nominal concentrations.

[3] = Pharmacokinetic study in rats after oral administration of cinobufacini capsule (UPLC-MS/MS of plasma); type: in vivo, rat; details: male, Sprague-Dawley, in vivo, rat plasma, mean ± SD, n = 6; for CL/F: read-out: CLz/F (converted); for MRT last: read-out: MRT0-t; for MRT inf: read-out: MRT0-∞; for half-life: read-out: T1/2z (converted); for Vd/F: read-out: Vz/F
Procedure: as §1, §2, §3, §4, §5, §6, §7

[4] = high QC level (249.58–250.28 ng/ml)
[5] = medium QC level (49.92–50.06 ng/ml)
[6] = oral cinobufacini capsule 0.9 g/kg (low)
[7] = oral cinobufacini capsule 1.8 g/kg (medium)
[8] = oral cinobufacini capsule 3.6 g/kg (high)

Row | Structure (SMILES) | Stability during 24 h at 4°C, RE [2, 4] [%] | Stability during 24 h at 4°C, RE ([2]; low QC level (4.99–5.00 ng/ml)) [%] | Stability during 24 h at 4°C, RE [2, 5] [%] | −80°C for 30 days, RE [2, 4] [%] | −80°C for 30 days, RE ([2]; low QC level (4.99–5.00 ng/ml)) [%] | −80°C for 30 days, RE [2, 5] [%] | Three freeze–thaw cycles, RE [2, 4] [%] | Three freeze–thaw cycles, RE ([2]; low QC level (4.99–5.00 ng/ml)) [%] | Three freeze–thaw cycles, RE [2, 5] [%] | AUC(0-inf) [3, 6] [ng·h/mL] | AUC(0-t) [3, 6] [ng·h/mL] | Cmax [3, 6] [ng/mL] | Tmax [3, 6] [min] | CL/F [3, 6] [mL/min/kg] | MRT last [3, 6] [min] | MRT inf [3, 6] [min] | half-life [3, 6] [min] | Vd/F [3, 6] [L/kg] | AUC(0-inf) [3, 7] [ng·h/mL] | AUC(0-t) [3, 7] [ng·h/mL] | further results
1 | C[C@]12CC[C@H](O)C[C@H]1CC[C@@H]1[C@@H]2[C@H](O)C(=O)[C@]2(C)[C@@H](c3ccc(=O)oc3)CC[C@]12O [ABG, arenobufagin] | −4.1 | 7.4 | −5.3 | 2.3 | 7.1 | 8.3 | 0.7 | 2.5 | 3.3 | 15.5 ± 4.73 | 15.5 ± 4.73 | 13.8 ± 6.4 | 27 ± 16.2 | 109 | 86.4 ± 34.8 | 88.2 ± 36 | 49.2 ± 39.6 | 8.01 ± 5.68 | 45.9 ± 13.1 | 44.1 ± 10.6 | concentrations in most rat plasma samples relative to LLOQ ([1]; after intravenous administration of cinobufacini injection, pharmacokinetic parameters could not be calculated): far below the LLOQs; detection in rat plasma ([1]; cinobufacini injection group, intravenous): could be detected; Cmax [3, 7]: 36.7 ± 13.1 ng/mL; Tmax [3, 7]: 19.2 ± 7.2 min; CL/F [3, 7]: 71.2 mL/min/kg; MRT last [3, 7]: 89.4 ± 61.8 min; MRT inf [3, 7]: 104 ± 77.4 min; half-life [3, 7]: 38.4 ± 9.6 min; Vd/F [3, 7]: 4.2 ± 1.25 L/kg; AUC(0-inf) [3, 8]: 87.6 ± 27.8 ng·h/mL; AUC(0-t) [3, 8]: 87.3 ± 27.4 ng·h/mL; Cmax [3, 8]: 77.9 ± 24.2 ng/mL; Tmax [3, 8]: 19.2 ± 7.2 min; CL/F [3, 8]: 77.5 mL/min/kg; MRT last [3, 8]: 72 ± 15.6 min; MRT inf [3, 8]: 73.8 ± 18.6 min; half-life [3, 8]: 53.4 ± 38.4 min; Vd/F [3, 8]: 5.66 ± 3.45 L/kg
2 | C[C@]12CC[C@H]3[C@@H](CC[C@]4(O)C[C@@H](O)CC[C@]34C=O)[C@@]1(O)CC[C@@H]2c1ccc(=O)oc1 [HBG, hellebrigenin] | 0.8 | 10.2 | −4.7 | −1.3 | −5.0 | 8.9 | 1.5 | 9.3 | −2.1 | 4.21 ± 2.23 | 3.97 ± 1.73 | 2.47 ± 1.38 | 56.4 ± 45 | 237 | 215 ± 97.8 | 229 ± 119 | 61.2 ± 36 | 14.2 ± 3.88 | 13.8 ± 5.4 | 13.7 ± 4.3 | Cmax [3, 7]: 8.36 ± 2.92 ng/mL; Tmax [3, 7]: 40.8 ± 21 min; CL/F [3, 7]: 110 mL/min/kg; MRT last [3, 7]: 137 ± 75.6 min; MRT inf [3, 7]: 153 ± 91.8 min; half-life [3, 7]: 80.4 ± 65.4 min; Vd/F [3, 7]: 11.1 ± 5.04 L/kg; AUC(0-inf) [3, 8]: 31.1 ± 11.4 ng·h/mL; AUC(0-t) [3, 8]: 31.1 ± 11.4 ng·h/mL; Cmax [3, 8]: 18.2 ± 5.84 ng/mL; Tmax [3, 8]: 23.4 ± 12 min; CL/F [3, 8]: 118 mL/min/kg; MRT last [3, 8]: 128 ± 49.8 min; MRT inf [3, 8]: 128 ± 49.2 min; half-life [3, 8]: 37.8 ± 6 min; Vd/F [3, 8]: 6.35 ± 2.55 L/kg
3 | C[C@]12CC[C@H](O)C[C@@]1(O)CC[C@@H]1[C@@H]2CC[C@]2(C)[C@@H](c3ccc(=O)oc3)CC[C@]12O [TCG, telocinobufagin] | −4.7 | −0.3 | −4.2 | −2.1 | 0.9 | 3.8 | -6.6 | 5.8 | 0.0 | 24.5 ± 10.3 | 24.5 ± 10.3 | 35.2 ± 21 | 21.6 ± 12 | 128 | 38.4 ± 3.6 | 38.4 ± 3.6 | 9.6 ± 0.6 | 1.75 ± 0.6 | 89.9 ± 24.1 | 89.7 ± 23.8 | Cmax [3, 7]: 109 ± 41.3 ng/mL; Tmax [3, 7]: 17.4 ± 5.4 min; CL/F [3, 7]: 66.2 mL/min/kg; MRT last [3, 7]: 43.8 ± 6.6 min; MRT inf [3, 7]: 44.4 ± 6.6 min; half-life [3, 7]: 12.6 ± 6.6 min; Vd/F [3, 7]: 1.13 ± 0.37 L/kg; AUC(0-inf) [3, 8]: 217 ± 82.4 ng·h/mL; AUC(0-t) [3, 8]: 217 ± 82.4 ng·h/mL; Cmax [3, 8]: 253 ± 83.8 ng/mL; Tmax [3, 8]: 19.2 ± 7.2 min; CL/F [3, 8]: 60.3 mL/min/kg; MRT last [3, 8]: 49.8 ± 7.8 min; MRT inf [3, 8]: 49.8 ± 7.8 min; half-life [3, 8]: 31.8 ± 1.2 min; Vd/F [3, 8]: 2.76 ± 1.67 L/kg
